Measurements: US9518052B2, “Pyrazolopyridines and pyrazolopyrimidines” (Pfizer Inc., priority 2014, dated 2016)
Where a name gives a salt, the structure may show the parent alone.

These compounds were tested on rhIFNγ stimulated STAT-3 phosphorylation in the A549 human epithelial cell line (assay: A549 Cell Assay: Inhibition of pSTAT3). Details: A549 cells.
Type: cell-based
Description: A549 Cell Assay: Inhibition of pSTAT3
An assay measuring the efficacy of JAK inhibitors on the functional response of recombinant human interferon γ (rhIFNγ) stimulated STAT-3 phosphorylation in the A549 human epithelial cell line.
A549 cells (ATCC #CCL-185), were plated at 30,000 cells/well in 96 well flat bottomed tissue culture plates (BD#353072) in 200 μL of growth medium (DMEM, Pfizer media prep, with 10% Fetal Bovine Serum, Sigma #F4135, 2 mM L-Glutamine, Pfizer media prep, 100 U/mL penicillin, Pfizer media prep, and 200 μg/ml streptomycin, Pfizer media prep), and cultured at 37° C., 5% CO2 incubator for 18 hours. Growth medium was removed by vacuum aspiration (V&P Scientific #vp187 bp-60), and 90 μL of pre-warmed assay medium (DMEM with 0.2% BSA, Miltenyi #130-091-376) was added to each well and incubated for 15 minutes at 37° C. 10 μL of vehicle control or test compound (final concentration range of 0.3 nM to 10 μM with 0.1% DMSO) was added to the cells. Plates were incubated at 37° C. for 1 hour. After compound incubation, 10 μL of 220 ng/mL recombinant human IFNγ (R&D Systems #285-IF, final rhIFNγ concentration of 20 ng/mL) was added to the cells and plates were incubated for 30 minutes at 37° C. Wells containing A549 cells, medium with 0.1% DMSO and no rhIFNγ were used as background controls. After rhIFNγ stimulation, media was aspirated from each well and 35 μL/well of iced-cold MSD lysis buffer containing protease and phosphatase inhibitors from Phospho-STAT3 Tyr705 assay kit (Meso-Scale Discovery #K150DID) was added to each well. Plates were incubated at 4° C. with shaking for 30 minutes. Cell lysates were assayed following the MSD Phospho-STAT3 Tyr705 assay kit protocol to detect pSTAT3.
Data were collected and transformed into percent inhibition and calculated using the following formula: […]

Row | SMILES | IC50 [µM]
1 | CNC(=O)c1n[nH]c2cc(-c3cc(F)c(O)cc3CC(F)(F)F)nc(NCc3cc(O)ccc3N(C)S(=O)(=O)c3ccccc3)c12 [Example 35, 6-[5-fluoro-4-hydroxy-2-(2,2,2-trifluoroethyl)phenyl]-4-({5-hydroxy-2-[methyl(phenylsulfon-yl)amino]benzyl}amino)-N-methyl-1H-pyrazolo[4,3-c]pyridine-3-carboxamide] | 0.437
2 | CCc1cc(O)c(F)cc1-c1cc2[nH]nc(C(=O)NC)c2c(NCc2ccccc2N(C)S(=O)(=O)c2ccccc2)n1 [Example 22, 6-(2-ethyl-5-fluoro-4-hydroxyphenyl)-N-methyl-4-({2-[methyl(phen-ylsulfonyl)amino]ben-zyl}amino)-1H-pyrazolo[4,3-c]pyridine-3-carboxamide] | 0.0528
3 | CCc1cc(O)c(F)cc1-c1cc2[nH]ncc2c(N(CCc2ccc(NS(C)(=O)=O)cc2)Cc2ccccc2N(C)S(C)(=O)=O)n1 [Example 130, N-[2-({[6-(2-ethyl-5-fluoro-4-hydroxyphenyl)-1H-pyrazolo[4,3-c]pyridin-4-yl](2-{4-[(methylsulfon-yl)amino]phenyl}ethyl)amino}methyl)phenyl]-N-methylmethanesulfonamide hydrochloride] | 0.729
4 | CCc1cc(O)c(F)cc1-c1cc2[nH]nc(C(=O)NC)c2c(NCC2CCCC2)n1 [Example 10, 4-[(cyclopentylmethyl)ami-no]-6-(2-ethyl-5-fluoro-4-hydroxyphenyl)-N-methyl-1H-pyrazolo[4,3-c]pyridine-3-carboxamide] | 0.026
5 | CCS(=O)(=O)N(C)c1ccccc1CNc1nc(-c2cc(F)c(O)cc2CC(F)(F)F)cc2[nH]nc(C(=O)NC)c12 [Example 13] | 0.0967
6 | CNC(=O)c1n[nH]c2cc(-c3cc(F)c(O)cc3CC(F)(F)F)nc(NCc3cc(F)ccc3N(C)S(C)(=O)=O)c12 [Example 14, 6-[5-fluoro-4-hydroxy-2-(2,2,2-trifluoroethyl)phenyl]-4-({5-fluoro-2-[methyl(methylsulfon-yl)amino]benzyl}ami-no)-N-methyl-1H-pyrazolo[4,3-c]pyridine-3-carboxamide] | 0.0207
7 | CNC(=O)c1n[nH]c2cc(-c3cc(F)c(O)cc3CC(F)(F)F)nc(NCc3c(F)cccc3N(C)S(C)(=O)=O)c12 [Example 18, 6-[5-fluoro-4-hydroxy-2-(2,2,2-trifluoroethyl)phenyl]-4-({2-fluoro-6-[methyl(meth-ylsulfonyl)amino]benz-yl}amino)-N-methyl-1H-pyrazolo[4,3-c]pyridine-3-carboxamide] | 0.097
8 | CCN(c1ccccc1CNc1nc(-c2cc(F)c(O)cc2CC(F)(F)F)cc2[nH]nc(C(=O)NC)c12)S(C)(=O)=O [Example 12, 4-({2-[ethyl(methylsulfon-yl)amino]benzyl}ami-no)-6-[5-fluoro-4-hydroxy-2-(2,2,2-trifluoroethyl)phenyl]-N-methyl-1H-pyrazolo[4,3-c]pyridine-3-carboxamide] | 0.0449
9 | CNC(=O)c1n[nH]c2cc(-c3cc(F)c(O)cc3CC(F)(F)F)nc(NCc3ccc(O)cc3N(C)S(C)(=O)=O)c12 [Example 33, 6-[5-fluoro-4-hydroxy-2-(2,2,2-trifluoroethyl)phenyl]-4-({4-hydroxy-2-[methyl(methylsulfon-yl)amino]benzyl}amino)-N-methyl-1H-pyrazolo[4,3-c]pyridine-3-carboxamide] | 0.49
10 | CN(c1ccccc1CNc1nc(-c2cc(F)c(O)cc2CC(F)(F)F)cc2[nH]nc(C(N)=O)c12)S(=O)(=O)c1ccccc1 [Example 26, 6-[5-fluoro-4-hydroxy-2-(2,2,2-trifluoroethyl)phenyl]-4-({2-[methyl(phen-ylsulfonyl)amino]ben-zyl}amino)-1H-pyrazolo[4,3-c]pyridine-3-carboxamide] | 0.124
11 | CNC(=O)c1n[nH]c2cc(-c3cc(F)c(O)cc3CC(F)(F)F)nc(NCc3ccccc3N(CCO)S(C)(=O)=O)c12 [Example 24, 6-[5-fluoro-4-hydroxy-2-(2,2,2-trifluoroethyl)phenyl]-4-({2-[(2-hydroxyethyl)-(methylsulfonyl)ami-no]benzyl}amino)-N-methyl-1H-pyrazolo[4,3-c]pyridine-3-carboxamide] | 0.226
12 | CS(=O)(=O)N(CCO)c1ccccc1CNc1nc(-c2cc(F)c(O)cc2CC(F)(F)F)cc2[nH]nc(C(N)=O)c12 [Example 27, 6-[5-fluoro-4-hydroxy-2-(2,2,2-trifluoroethyl)phenyl]-4-({2-[(2-hydroxyethyl)(methylsul-fonyl)amino]benzyl}amino)-1H-pyrazolo[4,3-c]pyridine-3-carboxamide] | 0.874

Same assay, conditions: Homo sapiens, A549 cells

Row | SMILES | IC50 [µM]
13 | CNC(=O)c1n[nH]c2nc(-c3cc(F)c(O)cc3CC(F)(F)F)nc(NCc3nccnc3N(C)S(C)(=O)=O)c12 [Example 100, 6-(5-Fluoro-4-hydroxy-2-(2,2,2-trifluoroethyl)phenyl)-N-methyl-4-(((3-(N-methylmethyl-sulfonamido)pyrazin-2-yl)methyl)amino)-1H-pyrazolo[3,4-d]pyrimidine-3-carboxamide] | 6.88
14 | CNC(=O)c1n[nH]c2nc(-c3cc(F)c(O)cc3CC(F)(F)F)nc(NCc3ccccc3N(CCO)S(C)(=O)=O)c12 [Example 102, 6-(5-fluoro-4-hydroxy-2-(2,2,2-trifluoroethyl)phenyl)-4-((2-(N-(2-hydroxyethyl)methylsulfonamido)benzyl)amino)-N-methyl-1H-pyrazolo[3,4-d]pyrimidine-3-carboxamide] | 3.36
15 | CN(c1ccc(O)cc1CNc1nc(-c2cc(F)c(O)cc2CC(F)(F)F)cc2[nH]nc(C(=O)Nc3ccc(NCCO)nc3)c12)S(C)(=O)=O [Example 75, 6-[5-Fluoro-4-hydroxy-2-(2,2,2-trifluoroethyl)phenyl]-N-{6-[(2-hydroxyethyl)amino]pyridin-3-yl}-4-({5-hydroxy-2-[methyl(methylsulfonyl)amino]benzyl}amino)-1H-pyrazolo[4,3-c]pyridine-3-carboxamide] | 1.35
16 | CCN(c1ccc(O)cc1CNc1nc(-c2cc(F)c(O)cc2CC(F)(F)F)nc2[nH]nc(C(=O)NC)c12)S(=O)(=O)c1ccccc1 [Example 105, 4-((2-(N-Ethylphenylsulfonamido)-5-hydroxybenzyl)amino)-6-(5-fluoro-4-hydroxy-2-(2,2,2-trifluoroethyl)phenyl)-N-methyl-1H-pyrazolo[3,4-d]pyrimidine-3-carboxamide] | 7.02
17 | CN(c1ccc(O)cc1CNc1nc(-c2cc(F)c(O)cc2CC(F)(F)F)nc2[nH]nc(-c3nc4c([nH]3)CCNC4)c12)S(C)(=O)=O [Example 169, N-{2-[({6-[5-Fluoro-4-hydroxy-2-(2,2,2-trifluoroethyl)phenyl]-3-(4,5,6,7-tetrahydro-1H-imidazo[4,5-c]pyridin-2-yl)-1H-pyrazolo[3,4-d]pyrimidin-4-yl}amino)methyl]-4-hydroxyphenyl}-N-methylmethanesulfonamide] | > 10
18 | CN(c1cc(O)ccc1CNc1nc(-c2cc(F)c(O)cc2CC(F)(F)F)cc2[nH]nc(C(N)=O)c12)S(C)(=O)=O [Example 41, 6-[5-Fluoro-4-hydroxy-2-(2,2,2-trifluoroethyl)phenyl]-4-({4-hydroxy-2-[methyl(methylsulfonyl)amino]benzyl}amino)-1H-pyrazolo[4,3-c]pyridine-3-carboxamide] | 1.19
